Marks after values point to notes of the source that are not given here.
Key:
MELANOME B16 = test: Antitumour activity on B16 melanoma implanted i.m. in mice; type: in vivo, souris C57B1/6
Excerpt: (§1) Les tests d'activité antitumorale ont été conduits au sein du Screening and Pharmacology Group de l'E.O.R.T.C., implanté à l'Institut Mario Negri de Milan.
(§2) Ces essais ont été conduits soit en mono-injection à différentes doses au jour J+1 suivant la greffe de la tumeur, soit en poly-injections chroniques Q1D, soit en protocoles Q4D.
(§3) L'activité antitumorale est mesurée par le rapport T/C %, T (en jours) étant le durée moyenne de vie des souris traitées, C (en jours) étant la durée moyenne de vie des souris témoins.
(§4) L'effet thérapeutique est considéré comme significatif quant T/C % est supérieur ou égal à 125.

[1] = test system: LEUCEMIE P388 INTRACEREBRALE; test: Antitumour activity on intracerebral P388 leukemia in mice; type: in vivo, souris CD2F1; conditions: Tableau 2, inoculation i.c.
Excerpt: as §1, §2, §3, §4

[2] = test system: CARCINOME DU POUMON DE LEWIS; test: Antitumour activity on Lewis lung carcinoma implanted i.m. in mice; type: in vivo, souris C57Bl/6
Excerpt: as §1, §2

[3] = test system: CARCINOME MAMMAIRE LIGNEE 16; test: Antitumour activity on mammary carcinoma line 16 implanted i.m. in mice; type: in vivo, souris 3CH
Excerpt: as §1, §2, §3, §4

LEUCEMIE P388 = test: Antitumour activity on P388 leukemia implanted i.p. in mice; type: in vivo, souris CD2F1
Excerpt: as §1, §2, §3, §4

[4] = 200 mg/kg i.p. j 1,5,9, jour 27
[5] = 300 mg/kg i.p. j 1,5,9, jour 27
[6] = 200 mg/kg i.p. x j 1,5,9, sacrifice jour 25
[7] = 200 mg/kg i.p. j 1,5,9, jour 26
[8] = 300 mg/kg i.p. j 1,5,9, jour 26

C(CCN1CCCNP12=NP(N1CC1)(N1CC1)=NP(N1CC1)(N1CC1)=N2)CN1CCCNP12=NP(N1CC1)(N1CC1)=NP(N1CC1)(N1CC1)=N2 (stereo not drawn) [SPM]
Volume moyen de la tumeur (cm^3 ± S.E.) (MELANOME B16; 100 mg/kg i.p. j 1-9, jour 20): 1,71±0,13* cm^3
Volume moyen de la tumeur (cm^3 ± S.E.) (MELANOME B16; 100 mg/kg i.p. j 1-9, jour 24): 3,39±0,34* cm^3
Volume moyen de la tumeur (cm^3 ± S.E.) (MELANOME B16; 100 mg/kg i.p. j 1-9, jour 27): 3,75±0,29 cm^3
nombre de souris vivantes/total (MELANOME B16; 100 mg/kg i.p. j 1-9, jour 27): 9/10
T/C (%) (MELANOME B16; 200 mg/kg i.p. j 1,5,9): 120%
Volume moyen de la tumeur (cm^3 ± S.E.) (MELANOME B16; 200 mg/kg i.p. j 1,5,9, jour 13): 0,52±0,08* cm^3
Volume moyen de la tumeur (cm^3 ± S.E.) (MELANOME B16; 200 mg/kg i.p. j 1,5,9, jour 17): 1,17±0,14* cm^3
Volume moyen de la tumeur (cm^3 ± S.E.) (MELANOME B16; 200 mg/kg i.p. j 1,5,9, jour 20): 1,66±0,15* cm^3
Volume moyen de la tumeur (cm^3 ± S.E.) (MELANOME B16; 200 mg/kg i.p. j 1,5,9, jour 24): 3,72±0,29* cm^3
Volume moyen de la tumeur (cm^3 ± S.E.) (MELANOME B16; [4]): 4,98±0,56 cm^3
nombre de souris vivantes/total (MELANOME B16; [4]): 8/10
T/C (%) (MELANOME B16; 200 mg/kg i.p. j 1-9): 138%
Volume moyen de la tumeur (cm^3 ± S.E.) (MELANOME B16; 200 mg/kg i.p. j 1-9, jour 20): 0,12±0,08* cm^3
Volume moyen de la tumeur (cm^3 ± S.E.) (MELANOME B16; 200 mg/kg i.p. j 1-9, jour 24): 1,22±0,17* cm^3
Volume moyen de la tumeur (cm^3 ± S.E.) (MELANOME B16; 200 mg/kg i.p. j 1-9, jour 27): 2,06±0,23 cm^3
nombre de souris vivantes/total (MELANOME B16; 200 mg/kg i.p. j 1-9, jour 27): 9/9
T/C (%) (MELANOME B16; 300 mg/kg i.p. j 1,5,9): 104%
Volume moyen de la tumeur (cm^3 ± S.E.) (MELANOME B16; 300 mg/kg i.p. j 1,5,9, jour 13): 0,44±0,06* cm^3
Volume moyen de la tumeur (cm^3 ± S.E.) (MELANOME B16; 300 mg/kg i.p. j 1,5,9, jour 17): 1,72±0,12* cm^3
Volume moyen de la tumeur (cm^3 ± S.E.) (MELANOME B16; 300 mg/kg i.p. j 1,5,9, jour 20): 2,67±0,24* cm^3
Volume moyen de la tumeur (cm^3 ± S.E.) (MELANOME B16; 300 mg/kg i.p. j 1,5,9, jour 24): 5,36±0,42* cm^3
Volume moyen de la tumeur (cm^3 ± S.E.) (MELANOME B16; [5]): 5,96±0,22 cm^3
nombre de souris vivantes/total (MELANOME B16; [5]): 6/10
T/C (%) ([1]; 100 mg/kg i.p. x 9 (j 1 à 9)): 141%
T/C (%) ([1]; 150 mg/kg i.p. x 9 (j 1 à 9)): 123%
T/C (%) ([1]; 200 mg/kg i.p. x 9 (j 1 à 9)): 129%
Volume de la tumeur (d^2.D/2)cm^3 ± S.E. ([2]; 200 mg/kg i.p. x j 1,5,9, jour 10): 0,53±0,08 cm^3
Volume de la tumeur (d^2.D/2)cm^3 ± S.E. ([2]; 200 mg/kg i.p. x j 1,5,9, jour 13): 1,64±0,18 cm^3
Volume de la tumeur (d^2.D/2)cm^3 ± S.E. ([2]; 200 mg/kg i.p. x j 1,5,9, jour 17): 3,49±0,15* cm^3
Volume de la tumeur (d^2.D/2)cm^3 ± S.E. ([2]; 200 mg/kg i.p. x j 1,5,9, jour 20): 4,35±0,26* cm^3
Volume de la tumeur (d^2.D/2)cm^3 ± S.E. ([2]; 200 mg/kg i.p. x j 1,5,9, jour 24): 6,08±0,31* cm^3
Métastases Nombre moyen (N ± S.E.) [2, 6]: 14 ± 3,4
Métastases Poids moyen (mg ± S.E.) [2, 6]: 127,3 ± 43,1 mg
Poids moyen de la tumeur (g ± S.E.) [2, 6]: 7,40 ± 0,33 g
activité sur le carcinome du poumon de Lewis (result in words) ([2]; souris C57B1/6): intéressante activité
toxicity of the regimen (result in words) ([3]; 100 mg/kg i.p. j 1-9): TOXIQUE
T/C (%) ([3]; 200 mg/kg i.p. j 1,5,9): 105%
Volume moyen de la tumeur (cm^3 ± S.E.) ([3]; 200 mg/kg i.p. j 1,5,9, jour 15): 0,37±0,05* cm^3
Volume moyen de la tumeur (cm^3 ± S.E.) ([3]; 200 mg/kg i.p. j 1,5,9, jour 19): 1,70±0,24* cm^3
Volume moyen de la tumeur (cm^3 ± S.E.) ([3]; 200 mg/kg i.p. j 1,5,9, jour 22): 2,43±0,31* cm^3
Volume moyen de la tumeur (cm^3 ± S.E.) [3, 7]: 3,71±0,46 cm^3
nombre d'animaux vivants/total [3, 7]: 9/10
toxicity of the regimen (result in words) ([3]; 200 mg/kg i.p. j 1-9): TOXIQUE
T/C (%) ([3]; 300 mg/kg i.p. j 1,5,9): 94%
Volume moyen de la tumeur (cm^3 ± S.E.) ([3]; 300 mg/kg i.p. j 1,5,9, jour 19): 0,24±0,14* cm^3
Volume moyen de la tumeur (cm^3 ± S.E.) ([3]; 300 mg/kg i.p. j 1,5,9, jour 22): 0,45±0,28* cm^3
Volume moyen de la tumeur (cm^3 ± S.E.) [3, 8]: 2,24±0,31 cm^3
nombre d'animaux vivants/total [3, 8]: 3/10
T/C (%) (LEUCEMIE P388; Tableau 2, inoculation i.p., 100 mg/kg i.p. x 9 (j 1 à 9)): 245%
T/C (%) (LEUCEMIE P388; Tableau 2, inoculation i.p., 150 mg/kg i.p. x 9 (j 1 à 9)): 135%
T/C (%) (LEUCEMIE P388; Tableau 2, inoculation i.p., 200 mg/kg i.p. x 9 (j 1 à 9)): 110%
T/C (%) (LEUCEMIE P388; Tableau 9, 25 mg/kg i.p. x j 1-9): 166%
T/C (%) (LEUCEMIE P388; Tableau 9, 50 mg/kg i.p. x j 1,5,9): 161%
T/C (%) (LEUCEMIE P388; Tableau 9, 50 mg/kg i.p. x j 1-9): 176%
T/C (%) (LEUCEMIE P388; Tableau 9, 100 mg/kg i.p. x j 1): 152%
T/C (%) (LEUCEMIE P388; Tableau 9, 100 mg/kg i.p. x j 1,5,9): 190%
T/C (%) (LEUCEMIE P388; Tableau 9, 100 mg/kg i.p. x j 1-9 (9Q1D)): 260%
T/C (%) (LEUCEMIE P388; Tableau 9, 150 mg/kg i.p. x j 1,5,9): 219%
T/C (%) (LEUCEMIE P388; Tableau 9, 150 mg/kg i.p. x j 1-9): 195%
T/C (%) (LEUCEMIE P388; Tableau 9, 200 mg/kg i.p. x j 1): 166%
T/C (%) (LEUCEMIE P388; Tableau 9, 250 mg/kg i.p. x j 1,5,9 (Q4D)): 285%
T/C (%) (LEUCEMIE P388; Tableau 9, 300 mg/kg i.p. x j 1): 166%
T/C (%) (LEUCEMIE P388; Tableau 9, 400 mg/kg i.p. x j 1): 200%

Source: patent EP0240392A1, “Compounds of the cyclophosphazene type, process for their preparation and pharmaceutical preparation containing them” (CENTRE NATIONAL DE LA RECHERCHE SCIENTIFIQUE (CNRS), priority 1986, dated 1987)
